In patent publication US20090155337A1, “METHOD AND AGENT FOR IN-SITU STABILIZATION OF VASCULAR TISSUE” (ENDOLOGIX, INC., priority 2007, published 2009):

Test system: collagen
Assay: Shrinkage temperature testing of pericardial tissue fixed (cross-linked) in EGCG/PBS
Conditions: for Shrinkage Temperature: pH 7.42, 37° C., fresh tissue control 62.6 +/− 0.6
Procedure: A 7 cm×7 cm piece of pericardial tissue was fixed in 40 ml of 0.5% EGCG/phosphate buffered saline (PBS), pH 7.42 in a 100 mm petri dish at 37° C., 82 rpm shaking speed, for 15 min. After 15 minutes, the tissue was quickly rinsed with PBS. Three samples were cut out for immediate shrinkage temperature testing (Group A). Shrinkage temperature can be an indication of the stability of the tissue. Increased shrinkage temperature is associated with an increased resistance to degradation. An additional 7 cm×7 cm piece of pericardial tissue was fixed in 40 ml of 0.5% EGCG/PBS, pH 7.42 in a 100 mm petri dish at 37° C. for 48 hours and quickly rinsed in PBS for 15 minutes. Six samples were cut out for shrinkage temperature testing (Group B). Six samples of fresh pericardial tissue were also cut for shrinkage temperature testing (Group C—Control Group).

Compound | Shrinkage Temperature (Group A: pericardial tissue cross-linked for 15 min in 0.5% EGCG/PBS) | Shrinkage Temperature (Group B: pericardial tissue cross-linked for 48 hours in 0.5% EGCG/PBS) | Stability of collagen via cross-linking (within 15 minutes of application under physiological conditions)
O=C(O[C@@H]1Cc2c(O)cc(O)cc2O[C@@H]1c1cc(O)c(O)c(O)c1)c1cc(O)c(O)c(O)c1 [EGCG, epigallocatechin gallate] | 72.2 +/− 0.5 °C | 86.3 +/− 0.6 °C | –
Catechin | – | – | increases the stability of collagen
